Measured values taken from patent publication US5871753A, “Regulated transcription of targeted genes and other biological events” (Board of Trustees of the Leland Stanford Junior University, priority 1995, dated 1999).

Tests used:
[1] = system: chimeric receptor TAC/TAC/ZETA (TTZ); assay: Secreted alkaline phosphatase reporter (NFAT-SX and other IL-2 enhancer elements) activation via cross-linking of chimeric receptor TAC/TAC/ZETA in TAg Jurkat cells; type: cell-based, human; details: 1 ng/ml FK506; TTZ-transfected TAg Jurkat cells
Source text: Induction of isolated IL-2 Enhancer-Binding Transcription Factors by cross-Linking the CD3.zeta. Chain of the T-Cell Receptor
The plasmid pSXNeo/IL2 (IL2-SX) (FIG. 1), placing the placental secreted alkaline phosphatase gene under the control of human IL-2 promoter (-325 to +47; MCB(86) 6, 3042), and variants (i.e. NFAT-SX, NFκB-SX, OAP/Oct1-SX, and AP-1-SX) under the control of the minimal IL-2 promoter (-325 to -294 and -72 to +47) plus synthetic oligomers, containing various promoter elements (i.e. NFAT, NKκKB, OAP/Oct-1, and AP1, respectively), were made by three piece ligations of 1) pPL/SEAP (Berger, et al., Gene (1988) 66,1) cut with SspI and HindIII; 2) pSV2/Neo (Southern and Berg, J. Mol. Appl. Genet. (1982) 1, 332) cut with NdeI, blunted with Klenow, then cut with PvuI; and 3) various promoter-containing plasmids (i.e. NFAT-CD8, κB-CD8, cx12lacZ-Oct-1, AP1-LUCIF3H, or cx15IL2) (described below) cut with PvuI and HindIII. NFAT-CD8 contains 3 copies of the NFAT-binding site (-286 to -257; Genes and Dev. (1990) 4, 1823) and cx12lacZ-Oct contains 4 copies of the OAP/Oct-1/(ARRE-1) binding site (MCB, (1988) 8, 1715) from the human IL-2 enhancer; κB-CD8 contains 3 copies of the NFκB binding site from the murine κ light chain (EMBO (1990) 9, 4425) and AP1-LUCIF3H contains 5 copies of the AP-1 site (5'-[…]-3') from the metallothionen promoter. […]

[2] = system: NF-AT-directed transcription; details: Emmel et al. 1989; Flanagan et al. 1991; cited from earlier work
[3] = system: chimeric FKBP12/CD3.zeta. (1FK3) receptor; assay: NFAT-inducible secreted alkaline phosphatase reporter activation through chimeric FKBP12/CD3.zeta. (1FK3) receptor; type: cell-based, human; details: 2 ng/ml FK506; FK1012A-stimulated 1FK3 transfected cells
Procedure: Activity of the Dimeric FK506 Derivative, FK1012A, on the Chimeric FKBP12/CD3.zeta. (1FK3) Receptor
5 μg of the eukaryotic expression vector, pBJ5, (based on pCDL-SRαwith a polylinker inserted between the 16S splice site and the poly A site) containing the chimeric receptor (1FK3), was co-transfected with 4 μg of the NFAT-inducible secreted alkaline phosphatase reporter plasmid, NFAT-SX. As a control, 5 μg of pBJ5 was used, instead of 1FK3/pBJ5, in a parallel transfection. After 24 hours, aliquots of each transfection containing approximately 10^5 cells were incubated with log dilutions of the drug, FK1012A, as indicated. As a positive control and to control for transfection efficiency, ionomycin (1 μm) and PMA (25 ng/ml) were added to aliquots from each transfection. After an additional 14 hour incubation, the supernatants were assayed for alkaline phosphatase activity and these activities were expressed relative to that of the positive control samples.
To obtain the binding domain for FK506, plasmid rhFKBP (provided by S. Schreiber, Nature (1990) 346, 674) was used with P#6052 (SEQ ID NO. 33) and P#6053 (SEQ ID NO. 35) to obtain a 340 bp XhoI-SalI fragment containing human FKBP12. This fragment was inserted into pBluescript digested with XhoI and SalI to provide plasmid FK12/KS, which was the source for the FKBP12 binding domain. […]

[4] = system: myristoylated chimeric CD3.zeta./FKBP12 (MZF3E) receptor; assay: NFAT-SX secreted alkaline phosphatase reporter activation through myristoylated chimeric CD3.zeta./FKBP12 (MZF3E) receptor; type: cell-based, human; details: 1 ng/ml FK506, FK1012B-stimulated
Procedure: Activity of the Dimeric FK506 Derivative, FK1012B, on the Myristoylated Chimeric CD3.zeta./FKBP12 (MZF3E) Receptor
5 μg of the eukaryotic expression vector, pBJ5, containing a myristoylated chimeric receptor was co-transfected with 4 μg NFAT-SX. MZE, MZF1E, MZF2E and MZF3E contain 0, 1, 2, or 3 copies of FKBP12, respectively, downstream of a myristoylated CD3.zeta. cytoplasmic domain (see FIG. 2). As a control, 5 μg of pBJ5 was used in a parallel transfection. After 24 hours, aliquots of each transfection containing approximately 10^5 cells were incubated with log dilutions of the drug, FK1012B, as indicated. As a positive control and to control for transfection efficiency, ionomycln (1 μm) and PMA (25 ng/ml) were added to aliquots from each transfection. After an additional 12 hour incubation, the supernatants were assayed for alkaline phosphatase activity and these activities were expressed relative to that or the positive control samples. […] Compare FIGS. 7 and 8.
A myristoylation sequence from c-src was obtained from Pellman, et al., Nature 314, 374, and joined to a complementary sequence of CD3.zeta. to provide a primer which was complementary to a sequence 3' of the transmembrane domain, namely P#8908 (SEQ ID NO. 23). This primer has a SacII site adjacent to the 5' terminus and a XhoI sequence adjacent to the 3' terminus of the myristoylation sequence. […]

C=CC[C@@H]1/C=C(\C)C[C@H](C)C[C@H](OC)[C@H]2O[C@@](O)(C(=O)C(=O)N3CCCC[C@H]3C(=O)O[C@H](/C(C)=C/[C@@H]3CC[C@@H](O)[C@H](OC)C3)[C@H](C)[C@@H](O)CC1=O)[C@H](C)C[C@@H]2OC [FK506]
activity due to NFAT after addition of FK506 [1]: dropped all activity due to NFAT to background levels
inhibition of NF-AT-directed transcription [2]: Inhibition of NF-AT-directed transcription
stimulations after addition of FK506 [3]: dropped all stimulations to background levels
stimulations after addition of FK506 [4]: dropped all stimulations to near background levels
